pIC50: −log10 of the molar value. Read-outs that look alike come from different tables or passages of the source.
Key:
[1] = tested on: HCV replicon cells Huh 9B; test: HCV replicon assay (luciferase readout); type: cell-based
Procedure: (§1) HCV replicon cells Huh 9B (ReBlikon), containing the firefly luciferase-ubiquitin-neomycin phosphotransferase fusion protein and EMCV-IRES driven HCV polyprotein with cell culture adaptive mutations.
Cells were cultured at 37° C. in a 5% CO2 environment and split twice a week on seeding at 2×10^6 cells/flask on day 1 and 1×10^6 3 days later. G418 at 0.5 mg/ml was added to the culture medium but not the assay medium.
The culture medium consisted of DMEM with […] glucose and glutamax (Gibco 61965-026) supplemented with 1× non-essential amino acids (Invitrogen 11140-035), penicillin (100 IU/ml)/streptomycin (100 μg/ml) (Invitrogen 15140-122), FCS (10%, 50 ml) and 1 mg/ml G418 (Invitrogen 10131-027) & 10% Australian foetal calf serum (Invitrogen 10099-141).
A flask of cells was trypsinised and a cell count carried out. Cells were diluted to 100,000 cells/ml and 100 μl of this used to seed one opaque white 96-well plate (for the replicon assay) and one flat-bottomed clear plate (for the tox assay) for every seven compounds to be tested for IC50. Wells G12 and H12 were left empty in the clear plate as the blank. Plates were then incubated at 37° C. in a 5% CO2 environment for 24 h.
(§2) On the following day compound dilutions are made up in medium at twice their desired final concentration in a clear round bottomed plate. All dilutions have a final DMSO concentration of 1%.
Once the dilution plate had been made up, controls and compounds were transferred to the assay plate (containing the cells) at 100 μl /well in duplicate plates. Exception: no compound was added to wells A1 and A2 of either plate and 100 μl of 1% DMSO was added to these instead. Plates were then incubated at 37° C. with 5% CO2 for 72 h.
At the end of the incubation time, the cells in the white plate were harvested by washing 23.5 mM beetle luciferin (Promega E1603), 26 mM ATP (Sigma 0-2060) in […] Tris buffer pH 7.8 aliquoted and stored at −80 C was thawed and diluted 1:50 in luciferase assay buffer (20 mM Tricine (Sigma T-0377), 1.07 mM magnesium carbonate hydroxide (Sigma M-5671), 0.1 mM EDTA (Sigma E-5134), 2.67 mM MgSO4 (BDH 101514Y), 33.3 mM dithiothreitol (Sigma 150460) pH 7.8).
The M injector of the microplate luminometer (Lmax, Molecular Devices) was primed with 5×300 μl injections of the diluted substrate. After 5-60 min incubation in lysis buffer at room temperature, a plate was inserted into the luminometer and 100 μl luciferase assay reagent was added by the injector on the luminometer. The signal was measured using a 1 second delay followed by a 4 second measurement programme.

[2] = tested on: HCV replicon cells Huh 9B; type: cell-based
Procedure: as §1
A flask of cells was trypsinised and a cell count carried out. […] Wells G12 and H12 were left empty in the clear plate as the blank. Plates were then incubated at 37° C. in a 5% CO2 environment for 24 h.
as §2
Exception: no compound was added to wells A1 and A2 of either plate and 100 μl of 1% DMSO was added to these instead. Plates were then incubated at 37° C. with 5% CO2 for 72 h.
The clear plate was stained with 100 μl 0.5% methylene blue in 50% ethanol at room temperature for 1 h, followed by solvation of the absorbed methylene blue in 100 μl per well of 1% lauroylsarcosine. Absorbance of the plate was measured on a microplate spectrophotometer (Molecular Devices) and the absorbance for each concentration of compound expressed as a proportion of the relative DMSO control.

[3] = Hepatitis C virus, 72 h, concentration reducing replicon level (luciferase activity) by 50% vs untreated cell control, 72 h incubation
[4] = concentration reducing total cell area by 50% relative to DMSO controls, methylene blue, absorbance 620 nm, 72 h incubation

Compound | pIC50 [1] | pIC50 [1, 3] | TD50 [2, 4] | further results
Cc1ccc(C(=O)Nc2ccc(N3CCOCC3)cc2)cc1-c1ccc(C(=O)Nc2ccc3[nH]c(=O)[nH]c3c2)cc1 [Example 79, 6-Methyl-biphenyl-3,4′-dicarboxylic acid 3-[(4-morpholin-4-yl-phenyl)-amide] 4′-[(2-oxo-2,3-dihydro-1H-benzoimidazol-5-yl)-amide]] | < 5.30 | – | – | TD50 [2]: * (key: * < 50 μM; ** > 50 μM)
Cc1ccc(C(=O)Nc2ccc(N3CCOCC3)cc2)cc1-c1ccc(C(=O)Nc2cccc(NS(C)(=O)=O)c2)cc1 [Example 78, 6-Methyl-biphenyl-3,4′-dicarboxylic acid 4′-[(3-methanesulfonylamino-phenyl)-amide] 3-[(4-morpholin-4-yl-phenyl)-amide]] | 5.30 to 6.00 | – | – | TD50 [2]: * (key: * < 50 μM; ** > 50 μM)
Cc1ccc(NC(=O)C2CC2)cc1-c1ccc(C(=O)Nc2ccccc2CN2CCCCC2)cc1 [Example 224, 5′-(Cyclopropanecarbonyl-amino)-2′-methyl-biphenyl-4-carboxylic acid (2-piperidin-1-ylmethyl-phenyl)-amide] | – | 5.30 to 6.00 | * (* < 50 μM) | –
Cc1ccc(C(=O)Nc2ccc(N3CCOCC3)cc2)cc1-c1ccc(CN[C@@H](CO)C(=O)O)cc1 [Example 99, (S)-3-Hydroxy-2-{[2′-methyl-5′-(4-morpholin-4-yl-phenylcarbamoyl)-biphenyl-4-ylmethyl]-amino}-propionic acid] | – | 5.30 to 6.00 | ** (** > 50 μM) | –
Cc1ccc(NC(=O)c2cccn2C)cc1-c1ccc(C(=O)Nc2ccc(CN3CCS(=O)(=O)CC3)cc2)cc1 [Example 157, 1-Methyl-1H-pyrrole-2-carboxylic acid {4′-[4-(1,1-dioxo-1lambda*6*-thiomorpholin-4-ylmethyl)-phenylcarbamoyl]-6-methyl-biphenyl-3-yl}-amide] | – | > 6.00 | * (* < 50 μM) | –
Cc1ccc(C(=O)Nc2ccc(N3CCOCC3)cc2)cc1-c1ccc(C(=O)NCc2cccc(OC(F)(F)F)c2)cc1 [Example 41, 6-Methyl-biphenyl-3,4′-dicarboxylic acid 3-[(4-morpholin-4-yl-phenyl)-amide] 4′-(3-trifluoromethoxy-benzylamide)] | > 6.00 | – | – | TD50 [2]: ** (key: * < 50 μM; ** > 50 μM)
Cc1ccc(C(=O)Nc2ccc(N3CCOCC3)cc2)cc1-c1ccc(NC(=O)Cc2cccc(Cl)c2)cc1 [Example 106, 4′-[2-(3-Chloro-phenyl)-acetylamino]-6-methyl-biphenyl-3-carboxylic acid (4-morpholin-4-yl-phenyl)-amide] | – | 5.30 to 6.00 | ** (** > 50 μM) | –
CNCC(=O)Nc1ccc(Cl)c(-c2ccc(C(=O)Nc3ccc(CN4CCN(S(C)(=O)=O)CC4)cc3)cc2)c1 [Example 252, 2′-Chloro-5′-(2-methylamino-acetylamino)-biphenyl-4-carboxylic acid [4-(4-methanesulfonyl-piperazin-1-ylmethyl)-phenyl]-amide] | – | > 6.00 | * (* < 50 μM) | –
6-Methoxy-biphenyl-3,4′-dicarboxylic acid 4′-{[4-(1,1-dioxo-1lambda*6*-thiomorpholin-4-ylmethyl)-phenyl]-amide} 4′{[4-(4-methanesulfonyl-piperazin-1-ylmethyl)-phenyl]-amide} [Example 262] | > 6.00 | – | – | –
Cc1ccc(CNc2ccc3cn[nH]c3c2)cc1-c1ccc(C(=O)Nc2ccc(CN3CCS(=O)(=O)CC3)cc2)cc1 [Example 201, 5′-[(1H-Indazol-6-ylamino)-methyl]-2′-methyl-biphenyl-4-carboxylic acid [4-(1,1-dioxo-1lambda*6*-thiomorpholin-4-ylmethyl)-phenyl]-amide] | – | – | * (* < 50 μM) | –
6-Methyl-biphenyl-3,4′-dicarboxylic acid 4′-[(1H-indol-6-yl)-amide] 3-[(4-morpholin-4-yl-phenyl)-amide] [Example 44] | – | – | – | pIC50 ([1]; concentration reducing replicon level (luciferase activity) by 50% vs untreated cell control, 72 h incubation): > 6.00

Source: patent US8008303B2, “Biphenyl derivatives and their use in treating hepatitis C” (AstraZeneca AB, priority 2005, dated 2011)
